Read-outs that look alike come from different tables or passages of the source.
What was measured:
κ-opioid receptor = κ-opioid receptor (Homo sapiens, UniProt P41145); assay: κ-opioid receptor GTPγS functional assay, U2OS cells; format: biochemical; set-up: expressed in transfected cells; host or cells: U-2 OS
Description: Plates were incubated for 30 min at a temperature of about 25° C. with shaking.

μ-opioid receptor [1] = target: T1, μ-opioid receptor (Homo sapiens, UniProt P35372); assay: μ-opioid receptor GTPγS functional assay, U2OS cells; conditions: for Emax: read-out: GTPγS μ Emax
T1 sequence (P35372 whole entry, species assumed): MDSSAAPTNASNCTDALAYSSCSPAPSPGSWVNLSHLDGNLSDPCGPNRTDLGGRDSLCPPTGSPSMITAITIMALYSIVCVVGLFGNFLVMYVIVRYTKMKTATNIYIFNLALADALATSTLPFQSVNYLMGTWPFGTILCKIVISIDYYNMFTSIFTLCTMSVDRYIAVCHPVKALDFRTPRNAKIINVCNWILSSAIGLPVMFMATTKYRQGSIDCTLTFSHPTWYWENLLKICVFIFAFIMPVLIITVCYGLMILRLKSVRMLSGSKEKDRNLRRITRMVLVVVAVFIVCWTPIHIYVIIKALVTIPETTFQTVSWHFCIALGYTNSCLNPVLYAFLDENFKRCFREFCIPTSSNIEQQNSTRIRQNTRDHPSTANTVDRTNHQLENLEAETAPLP

μ-opioid receptor [2] = target: T1, μ-opioid receptor; assay: biochemical; set-up: purchased Perkin Elmer, Shelton, Conn; host or cells: HEK-293 or CHO; conditions: HEK-293 or CHO cells; for EC50: read-out: GTPγS μ EC50; for Emax: relative to DAMGO, read-out: GTPγS μ Emax
[3] = U2OS cells, read-out: GTPγS κ EC50

Chain of κ-opioid receptor (P41145 whole entry): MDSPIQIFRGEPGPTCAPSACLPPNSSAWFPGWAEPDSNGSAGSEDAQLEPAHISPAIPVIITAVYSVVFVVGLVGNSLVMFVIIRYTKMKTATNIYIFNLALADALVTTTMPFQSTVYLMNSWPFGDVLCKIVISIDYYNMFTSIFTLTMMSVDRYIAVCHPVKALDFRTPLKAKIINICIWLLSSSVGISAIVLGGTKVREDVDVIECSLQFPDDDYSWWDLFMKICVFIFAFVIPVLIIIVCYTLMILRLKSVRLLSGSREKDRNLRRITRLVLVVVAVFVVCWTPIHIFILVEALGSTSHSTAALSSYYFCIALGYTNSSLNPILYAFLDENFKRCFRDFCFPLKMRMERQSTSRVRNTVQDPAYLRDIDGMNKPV

COc1ccc2c(c1)[C@@]1(CCO)CCN(C)[C@@H](C2)[C@H]1C [Compound 49, 2-((2S,6R,11S)-8-methoxy-3,11-dimethyl-2,3,4,5-tetrahydro-2,6-methanobenzo-[d]azocin-6(1H)-yl)ethan-1-ol]
Emax (κ-opioid receptor; U2OS cells): 41 ± 4.58% | Emax (μ-opioid receptor [1]): 21%

C[C@H]1[C@H]2Cc3ccc(O)cc3[C@]1(CCNC(=O)NCC(c1ccccc1)c1ccccc1)CCN2C [Compound 77, 1-(2,2-diphenylethyl)-3-(2-((2R,6R,11R)-8-hydroxy-3,11-dimethyl-2,3,4,5-tetrahydro-2,6-methanobenzo[d]azocin-6(1H)-yl)ethyl)urea]
EC50 (μ-opioid receptor [2]): 4.61 ± 0.75 nM | Emax (μ-opioid receptor [2]): 57.1 ± 2.33%

C[C@@H]1[C@@H]2Cc3ccc(O)cc3[C@@]1(CCN1CCN(C(c3ccc(F)cc3)c3ccc(F)cc3)CC1)CCN2C [Compound 15, (2S,6S,11S)-6-(2-(4-(bis(4-fluoro-phenyl)methyl)piperazin-1-yl)ethyl)-3,11-dimethyl-1,2,3,4,5,6-hexahydro-2,6-methanobenzo[d]azocin-8-ol]
EC50 (μ-opioid receptor [2]): 3460 ± 314 nM | Emax (μ-opioid receptor [2]): 97.7 ± 1.76%

C[C@H]1[C@H]2Cc3ccc(O)cc3[C@]1(CCNC(=O)NC(c1ccccc1)c1ccccc1)CCN2C [Compound 73, 1-Benzhydryl-3-(2-((2R,6R,11R)-8-hydroxy-3,11-dimethyl-2,3,4,5-tetrahydro-2,6-methanobenzo[d]azocin-6(1H)-yl)ethyl)urea]
EC50 (μ-opioid receptor [2]): 3.64 ± 0.88 nM | Emax (μ-opioid receptor [2]): 69.4 ± 1.22%

C[C@H]1[C@H]2Cc3ccc(O)cc3[C@]1(CCNCc1ccc(F)cc1)CCN2CC1CC1 [Compound 16, (2R,6R,11R)-3-(cyclopropylmethyl)-6-(2-((4-fluorobenzyl)amino)ethyl)-11-methyl-1,2,3,4,5,6-hexahydro-2,6-methanobenzo[d]azocin-8-ol]
EC50 (μ-opioid receptor [2]): 3.04 ± 0.26 nM | Emax (μ-opioid receptor [2]): 10.8 ± 1.25%

COc1ccc2c(c1)[C@]1(CCNCCCN3CCCC3=O)CCN(C)[C@H](C2)[C@@H]1C [Compound 57, 1-(3-((2-((2R,6R,11R)-8-methoxy-3,11-dimethyl-2,3,4,5-tetrahydro-2,6-methanobenzo-[d]azocin-6(1H)-yl)ethyl)amino)propyl)pyrrolidin-2-one]
Emax (κ-opioid receptor; U2OS cells): 118 ± 2% | EC50 (κ-opioid receptor; [3]): 11.4 ± 0.994 µM | EC50 (μ-opioid receptor [1]): 11.3 ± 0.435 µM | Emax (μ-opioid receptor [1]): 70.7 ± 2.03%

C[C@H]1[C@H]2Cc3ccc(O)cc3[C@]1(CCNC(=O)[C@@H]1CCC(=O)N1)CCN2CC1CC1 [Compound 81, (S)-N-(2-((2R,6R,11R)-3-(cyclopropyl-methyl)-8-hydroxy-11-methyl-2,3,4,5-tetrahydro-2,6-methanobenzo[d]azocin-6(1H)-yl)ethyl)-5-oxopyrrolidine-2-carboxamide]
EC50 (μ-opioid receptor [2]): 18.1 ± 4.15 nM | Emax (μ-opioid receptor [2]): 10.8 ± 0.96%

C[C@H]1[C@H]2Cc3ccc(O)cc3[C@]1(CCN(C)C)CCN2C [Compound 22, (2R,6R,11R)-6-(2-(dimethyl-amino)-ethyl)-3,11-dimethyl-1,2,3,4,5,6-hexahydro-2,6-methanobenzo[d]azocin-8-ol]
EC50 (μ-opioid receptor [2]): 1070 ± 143 nM | Emax (μ-opioid receptor [2]): 37.3 ± 1%

C[C@H]1[C@H]2Cc3ccc(O)cc3[C@]1(CCNC(=O)NS(=O)(=O)c1ccc(F)cc1)CCN2CC1CC1 [Compound 19, N-((2-((2R,6R,11R)-3-(cyclopropyl-methyl)-8-hydroxy-11-methyl-2,3,4,5-tetrahydro-2,6-methanobenzo[d]azocin-6(1H)-yl)ethyl)carbamoyl)-4-fluoro-benzenesulfonamide]
EC50 (μ-opioid receptor [2]): 17.3 ± 6.99 nM | Emax (μ-opioid receptor [2]): 10.1 ± 0.98%

COc1ccc2c(c1)[C@@]1(CCNC3(C(=O)O)CC3)CCN(CC3CC3)[C@@H](C2)[C@H]1C [Compound 35, 1-((2-((2S,6S,11S)-3-(cyclopropyl-methyl)-8-methoxy-11-methyl-2,3,4,5-tetrahydro-2,6-methanobenzo[d]azocin-6(1H)-yl)ethyl)amino)cyclopropane-1-carboxylic acid]
EC50 (μ-opioid receptor [2]): 17500 ± 6780 nM | Emax (μ-opioid receptor [2]): 13 ± 1.53%

COc1ccc2c(c1)[C@]1(CCO)CCN(C)[C@H](C2)[C@@H]1C [Compound 50, 2-((2R,6S,11R)-8-methoxy-3,11-dimethyl-2,3,4,5-tetrahydro-2,6-methano-benzo[d]azocin-6(1H)-yl)ethan-1-ol]
EC50 (κ-opioid receptor): > 2.32 µM | Emax (κ-opioid receptor; U2OS cells): 103 ± 8.41% | EC50 (μ-opioid receptor [1]): 2.39 ± 0.271 µM | Emax (μ-opioid receptor [1]): 88.3 ± 7.62%

C[C@H]1[C@H]2Cc3ccc(O)cc3[C@]1(CCNC(=O)[C@@H]1CCCN1)CCN2C [Compound 71, (S)-N-(2-((2R,6R,11R)-8-hydroxy-3,11-dimethyl-2,3,4,5-tetrahydro-2,6-methano-benzo[d]azocin-6(1H)-yl)ethyl)-pyrrolidine-2-carboxamide]
EC50 (μ-opioid receptor [2]): 1580 ± 177 nM | Emax (μ-opioid receptor [2]): 36 ± 0.58%

COC[C@@H]1CCCN1CC[C@]12CCN(C)[C@H](Cc3ccc(OC)cc31)[C@@H]2C [Compound 56, (2R,6S,11R)-8-methoxy-6-(2-((S)-2-(methoxymethyl)pyrrolidin-1-yl)ethyl)-3,11-dimethyl-1,2,3,4,5,6-hexahydro-2,6-methanobenzo[d]azocine]
Emax (κ-opioid receptor; U2OS cells): 94.7 ± 4.48% | EC50 (κ-opioid receptor; [3]): 5.49 ± 0.434 µM | EC50 (μ-opioid receptor [1]): 5.99 ± 1.22 µM | Emax (μ-opioid receptor [1]): 72.3 ± 2.85%

C[C@H]1[C@H]2Cc3ccc(O)cc3[C@]1(CCN1CCCC1)CCN2C [Compound 20, (2R,6R,11R)-3,11-dimethyl-6-(2-(pyrrolidin-1-yl)ethyl)-1,2,3,4,5,6-hexahydro-2,6-methanobenzo[d]azocin-8-ol]
Emax (μ-opioid receptor [2]): 108 ± 10.1%

COc1ccc2c(c1)[C@@]1(CCN[C@H](C(=O)O)C(C)C)CCN(CC3CC3)[C@@H](C2)[C@H]1C [Compound 41, (2-((2S,6S,11S)-3-(cyclopropylmethyl)-8-methoxy-11-methyl-2,3,4,5-tetrahydro-2,6-methanobenzo[d]azocin-6(1H)-yl)ethyl)-L-valine]
Emax (μ-opioid receptor [2]): 0%

COc1ccc2c(c1)[C@]1(CCNCCc3ccc(S(N)(=O)=O)cc3)CCN(C)[C@H](C2)[C@@H]1C [Compound 51, 4-(2-((2-((2R,6R,11R)-8-methoxy-3,11-dimethyl-2,3,4,5-tetrahydro-2,6-methanobenzo[d]azocin-6(1H)-yl)ethyl)-amino)ethyl)benzenesulfonamide]
Emax (κ-opioid receptor; U2OS cells): 96.3 ± 0.67% | EC50 (κ-opioid receptor; [3]): 6.28 ± 0.318 µM | EC50 (μ-opioid receptor [1]): 6.71 ± 0.257 µM | Emax (μ-opioid receptor [1]): 76.7 ± 3.71%

COc1ccc2c(c1)[C@]1(CCNC(=O)[C@@H]3CCC(=O)N3)CCN(C)[C@H](C2)[C@@H]1C [Compound 84, (S)-N-(2-((2R,6R,11R)-8-methoxy-3,11-dimethyl-2,3,4,5-tetrahydro-2,6-methano-benzo[d]azocin-6(1H)-yl)ethyl)-5-oxopyrrolidine-2-carboxamide]
EC50 (μ-opioid receptor [2]): 12400 ± 540 nM | Emax (μ-opioid receptor [2]): 32.4 ± 0.76%

C[C@H]1[C@H]2Cc3ccc(O)cc3C1(CCNS(=O)(=O)N(C)C)CCN2CC1CC1 [Compound 9]
EC50 (μ-opioid receptor [1]): 0.00067 ± 1e-05 µM | Emax (μ-opioid receptor [1]): 27%

C[C@H]1[C@H]2Cc3ccc(O)cc3[C@]1(CCNC(=O)[C@@H]1CCCC(=O)N1)CCN2CC1CC1 [Compound 82, (S)-N-(2-((2R,6R,11R)-3-(cyclopropyl-methyl)-8-hydroxy-11-methyl-2,3,4,5-tetrahydro-2,6-methanobenzo[d]azocin-6(1H)-yl)ethyl)-6-oxopiperidine-2-carboxamide]
EC50 (μ-opioid receptor [2]): 19.6 ± 9.39 nM | Emax (μ-opioid receptor [2]): 8.9 ± 0.9%

C[C@H]1[C@H]2Cc3ccc(O)cc3[C@]1(CCNC(=O)Nc1cccc(Oc3ccccc3)c1)CCN2C [Compound 74, 1-(2-((2R,6R,11R)-8-hydroxy-3,11-dimethyl-2,3,4,5-tetrahydro-2,6-methanobenzo[d]azocin-6(1H)-yl)ethyl)-3-(3-phenoxyphenyl)urea]
EC50 (μ-opioid receptor [2]): 18.4 ± 2.09 nM | Emax (μ-opioid receptor [2]): 52.1 ± 1.88%

C[C@H]1[C@H]2Cc3ccc(O)cc3[C@]1(CCNCc1ccco1)CCN2CC1CC1 [Compound 17, (2R,6R,11R)-3-(cyclopropylmethyl)-6-(2-((furan-2-ylmethyl)amino)ethyl)-11-methyl-1,2,3,4,5,6-hexahydro-2,6-methanobenzo[d]azocin-8-ol]
Emax (μ-opioid receptor [2]): -0.88 ± 0.94%

COc1ccc2c(c1)[C@]1(CCNC(=O)NS(=O)(=O)c3ccc(F)cc3)CCN(C)[C@H](C2)[C@@H]1C [Compound 67, 4-fluoro-N-((2-((2R,6R,11R)-8-methoxy-3,11-dimethyl-2,3,4,5-tetrahydro-2,6-methanobenzo[d]azocin-6(1H)-yl)ethyl)-carbamoyl)benzene-sulfonamide]
EC50 (μ-opioid receptor [2]): 2450 ± 692 nM | Emax (μ-opioid receptor [2]): 26.3 ± 3.38%

C[C@H]1[C@H]2Cc3ccc(O)cc3[C@]1(CCNC(=O)NS(=O)(=O)c1ccccc1)CCN2C [Compound 75, N-((2-((2R,6R,11R)-8-hydroxy-3,11-dimethyl-2,3,4,5-tetrahydro-2,6-methanobenzo[d]azocin-6(1H)-yl)-ethyl)carbamoyl)benzenesulfonamide]
EC50 (μ-opioid receptor [2]): 314 ± 30.2 nM | Emax (μ-opioid receptor [2]): 24.7 ± 0.17%

C[C@H]1[C@H]2Cc3ccc(O)cc3[C@]1(CCNC(=O)[C@@H]1CCCCN1)CCN2C [Compound 70, (S)-N-(2-((2R,6R,11R)-8-hydroxy-3,11-dimethyl-2,3,4,5-tetrahydro-2,6-methano-benzo[d]azocin-6(1H)-yl)ethyl)-piperidine-2-carboxamide]
EC50 (μ-opioid receptor [2]): 783 ± 208 nM | Emax (μ-opioid receptor [2]): 27.7 ± 0.88%

COc1ccc2c(c1)[C@@]1(CCNCC(=O)O)CCN(CC3CC3)[C@@H](C2)[C@H]1C [Compound 39, (2-((2S,6S,11S)-3-(cyclopropylmethyl)-8-methoxy-11-methyl-2,3,4,5-tetrahydro-2,6-methanobenzo[d]azocin-6(1H)-yl)ethyl)glycine]
Emax (μ-opioid receptor [2]): 19.7 ± 3.18%

C[C@@H]1[C@@H]2Cc3ccc(O)cc3[C@@]1(CCN1CCC(N(C3CC3)S(=O)(=O)c3ccccc3)CC1)CCN2C [Compound 14, N-cyclopropyl-N-(1-(2-((2S,6S,11S)-8-hydroxy-3,11-dimethyl-2,3,4,5-tetrahydro-2,6-methanobenzo[d]azocin-6(1H)-yl)ethyl)piperidin-4-yl)-benzenesulfonamide]
EC50 (μ-opioid receptor [2]): 11900 ± 1220 nM | Emax (μ-opioid receptor [2]): 69 ± 0.58%
